Assay results reported in ChEMBL document CHEMBL1201862, “PubChem BioAssay data set” (2004).
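Briefly, cells in 96-well plates were exposed to five compound concentrations for 48 h, and endpoints were estimated by linear interpolation. Here, GI50 denotes the concentration required for 50% inhibition of growth.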 The source made the active and inactive calls. No stated cut-off is given here; in the data, active = GI50 up to about 1.1 µM and inactive = higher.

Experiments:
Experiment in all cases: NCI-60 cell line screen, 48 h
T47D = tested on: T47D
CCRF-CEM = tested on: CCRF-CEM
SF-295 = tested on: SF-295
NCI-H23 = tested on: NCI-H23
NCI/ADR-RES = tested on: NCI/ADR-RES
HL-60 = tested on: HL-60
MDA-MB-435 = tested on: MDA-MB-435
SNB-19 = tested on: SNB-19
HCC 2998 = tested on: HCC 2998
HCT-116 = tested on: HCT-116
MDA-MB-231 = tested on: MDA-MB-231
UACC-62 = tested on: UACC-62
A549 = tested on: A549
OVCAR-8 = tested on: OVCAR-8
SW-620 = tested on: SW-620
ACHN = tested on: ACHN
UO-31 = tested on: UO-31
HOP-92 = tested on: HOP-92
DU-145 = tested on: DU-145
HCT-15 = tested on: HCT-15
MDA-N = tested on: MDA-N
HT-29 = tested on: HT-29
MOLT-4 = tested on: MOLT-4
HOP-62 = tested on: HOP-62
EKVX = tested on: EKVX
NCI-H522 = tested on: NCI-H522
Malme-3M = tested on: Malme-3M
OVCAR-3 = tested on: OVCAR-3
SF-539 = tested on: SF-539
NCI-H226 = tested on: NCI-H226
RPMI-8226 = tested on: RPMI-8226
SK-MEL-2 = tested on: SK-MEL-2
UACC-257 = tested on: UACC-257
TK-10 = tested on: TK-10
Hs-578T = tested on: Hs-578T
CAKI-1 = tested on: CAKI-1
IGROV-1 = tested on: IGROV-1
SK-MEL-28 = tested on: SK-MEL-28
COLO 205 = tested on: COLO 205
U-251 = tested on: U-251
NCI-H460 = tested on: NCI-H460
SK-OV-3 = tested on: SK-OV-3
SN12C = tested on: SN12C
OVCAR-5 = tested on: OVCAR-5
A498 = tested on: A498
SNB-75 = tested on: SNB-75
RXF 393 = tested on: RXF 393
M14 = tested on: M14
786-0 = tested on: 786-0
LOX IMVI = tested on: LOX IMVI
MCF7 = tested on: MCF7
OVCAR-4 = tested on: OVCAR-4
SF-268 = tested on: SF-268
KM12 = tested on: KM12
BT-549 = tested on: BT-549
SK-MEL-5 = tested on: SK-MEL-5
PC-3 = tested on: PC-3
K562 = tested on: K562
SR = tested on: SR

Q: For `Cc1ccc2c(c1)C1(C)OC(C=CC1=O)O2` (configuration not stated), which GI50 (T47D) is on record?
A: 0.705 µM (active)

Q: What about the GI50 (CCRF-CEM) of the same molecule?
A: 0.114 µM (active)

Q: What about the GI50 (SF-295) of the same molecule?
A: 2.79 µM (inactive)

Q: And the GI50 (NCI-H23)?
A: 0.94 µM (active)

Q: What about the GI50 (NCI/ADR-RES) of the same molecule?
A: 0.0681 µM (active)

Q: What about the GI50 (HL-60) of the same molecule?
A: 0.104 µM (active)

Q: What about the GI50 (MDA-MB-435) of the same molecule?
A: 0.182 µM (active)

Q: And the GI50 (SNB-19)?
A: 2.75 µM (inactive)

Q: What about the GI50 (HCC 2998) of the same molecule?
A: 2.84 µM (inactive)

Q: What about the GI50 (HCT-116) of the same molecule?
A: 0.204 µM (active)

Q: And the GI50 (MDA-MB-231)?
A: 0.564 µM (active)

Q: And the GI50 (UACC-62)?
A: 0.839 µM (active)

Q: And the GI50 (A549)?
A: 3.24 µM (inactive)

Q: And the GI50 (OVCAR-8)?
A: 0.282 µM (active)

Q: And the GI50 (SW-620)?
A: 0.237 µM (active)

Q: What about the GI50 (ACHN) of the same molecule?
A: 0.522 µM (active)

Q: And the GI50 (UO-31)?
A: 1.14 µM (inactive)

Q: And the GI50 (HOP-92)?
A: 0.435 µM (active)

Q: What about the GI50 (DU-145) of the same molecule?
A: 2.72 µM (inactive)

Q: And the GI50 (HCT-15)?
A: 0.265 µM

Q: And the GI50 (MDA-N)?
A: 0.18 µM (active)

Q: And the GI50 (HT-29)?
A: 0.267 µM (active)

Q: And the GI50 (MOLT-4)?
A: 0.225 µM (active)

Q: What about the GI50 (HOP-62) of the same molecule?
A: 3.43 µM (inactive)

Q: And the GI50 (EKVX)?
A: 2.45 µM (inactive)

Q: And the GI50 (NCI-H522)?
A: 0.0769 µM (active)

Q: What about the GI50 (Malme-3M) of the same molecule?
A: 0.341 µM (active)

Q: And the GI50 (OVCAR-3)?
A: 0.344 µM (active)

Q: What about the GI50 (SF-539) of the same molecule?
A: 0.488 µM (active)

Q: What about the GI50 (NCI-H226) of the same molecule?
A: 3.02 µM (inactive)

Q: What about the GI50 (RPMI-8226) of the same molecule?
A: 0.308 µM (active)

Q: What about the GI50 (SK-MEL-2) of the same molecule?
A: 1.77 µM (inactive)

Q: What about the GI50 (UACC-257) of the same molecule?
A: 1.01 µM (active)

Q: What about the GI50 (TK-10) of the same molecule?
A: 1.4 µM (inactive)

Q: And the GI50 (Hs-578T)?
A: 2.9 µM (inactive)

Q: And the GI50 (CAKI-1)?
A: 0.31 µM (active)

Q: What about the GI50 (IGROV-1) of the same molecule?
A: 2.18 µM (inactive)

Q: What about the GI50 (SK-MEL-28) of the same molecule?
A: 0.586 µM (active)

Q: And the GI50 (COLO 205)?
A: 0.384 µM (active)

Q: What about the GI50 (U-251) of the same molecule?
A: 0.29 µM (active)

Q: What about the GI50 (NCI-H460) of the same molecule?
A: 2.21 µM (inactive)

Q: And the GI50 (SK-OV-3)?
A: 3.24 µM (inactive)

Q: And the GI50 (SN12C)?
A: 0.308 µM (active)

Q: What about the GI50 (OVCAR-5) of the same molecule?
A: 1.85 µM (inactive)

Q: What about the GI50 (A498) of the same molecule?
A: 3.89 µM (inactive)

Q: What about the GI50 (SNB-75) of the same molecule?
A: 1.68 µM (inactive)

Q: What about the GI50 (RXF 393) of the same molecule?
A: 0.445 µM (active)

Q: What about the GI50 (M14) of the same molecule?
A: 0.316 µM (active)

Q: What about the GI50 (786-0) of the same molecule?
A: 0.261 µM (active)

Q: What about the GI50 (LOX IMVI) of the same molecule?
A: 0.573 µM (active)

Q: And the GI50 (MCF7)?
A: 1.27 µM (inactive)

Q: And the GI50 (OVCAR-4)?
A: 0.774 µM (active)

Q: What about the GI50 (SF-268) of the same molecule?
A: 1.41 µM (inactive)

Q: What about the GI50 (KM12) of the same molecule?
A: 0.736 µM (active)

Q: What about the GI50 (BT-549) of the same molecule?
A: 0.389 µM (active)

Q: And the GI50 (SK-MEL-5)?
A: 1.32 µM (inactive)

Q: And the GI50 (PC-3)?
A: 0.499 µM (active)

Q: And the GI50 (K562)?
A: 0.147 µM (active)

Q: What about the GI50 (SR) of the same molecule?
A: 0.106 µM (active)

Q: For `COc1ccc(C(O)CNC(=O)c2ccccc2)cc1` (configuration not stated), which GI50 (T47D) is on record?
A: > 100 µM (inactive)

Q: What about the GI50 (CCRF-CEM) of the same molecule?
A: > 100 µM (inactive)

Q: And the GI50 (SF-295)?
A: > 100 µM (inactive)

Q: And the GI50 (NCI-H23)?
A: > 100 µM (inactive)

Q: What about the GI50 (NCI/ADR-RES) of the same molecule?
A: > 100 µM (inactive)

Q: And the GI50 (HL-60)?
A: > 100 µM (inactive)

Q: What about the GI50 (MDA-MB-435) of the same molecule?
A: > 100 µM (inactive)

Q: And the GI50 (SNB-19)?
A: > 100 µM (inactive)

Q: And the GI50 (HCC 2998)?
A: > 100 µM (inactive)

Q: What about the GI50 (HCT-116) of the same molecule?
A: > 100 µM (inactive)

Q: And the GI50 (MDA-MB-231)?
A: > 100 µM (inactive)

Q: What about the GI50 (UACC-62) of the same molecule?
A: > 100 µM (inactive)

Q: And the GI50 (A549)?
A: > 100 µM (inactive)

Q: And the GI50 (OVCAR-8)?
A: > 100 µM (inactive)

Q: And the GI50 (SW-620)?
A: > 100 µM (inactive)

Q: What about the GI50 (ACHN) of the same molecule?
A: > 100 µM (inactive)

Q: And the GI50 (HOP-92)?
A: > 100 µM (inactive)

Q: And the GI50 (DU-145)?
A: > 100 µM (inactive)

Q: And the GI50 (HCT-15)?
A: > 100 µM

Q: And the GI50 (MDA-N)?
A: > 100 µM (inactive)

Q: What about the GI50 (HT-29) of the same molecule?
A: > 100 µM (inactive)

Q: And the GI50 (MOLT-4)?
A: > 100 µM (inactive)

Q: And the GI50 (HOP-62)?
A: > 100 µM (inactive)

Q: What about the GI50 (EKVX) of the same molecule?
A: > 100 µM (inactive)

Q: What about the GI50 (NCI-H522) of the same molecule?
A: > 100 µM (inactive)

Q: And the GI50 (Malme-3M)?
A: > 100 µM (inactive)

Q: What about the GI50 (OVCAR-3) of the same molecule?
A: > 100 µM (inactive)

Q: And the GI50 (SF-539)?
A: > 100 µM (inactive)

Q: And the GI50 (NCI-H226)?
A: > 100 µM (inactive)

Q: And the GI50 (RPMI-8226)?
A: > 100 µM (inactive)

Q: And the GI50 (SK-MEL-2)?
A: > 100 µM (inactive)

Q: What about the GI50 (UACC-257) of the same molecule?
A: > 100 µM (inactive)

Q: What about the GI50 (TK-10) of the same molecule?
A: > 100 µM (inactive)

Q: What about the GI50 (Hs-578T) of the same molecule?
A: > 100 µM (inactive)

Q: And the GI50 (CAKI-1)?
A: > 100 µM (inactive)

Q: What about the GI50 (IGROV-1) of the same molecule?
A: > 100 µM (inactive)

Q: What about the GI50 (SK-MEL-28) of the same molecule?
A: > 100 µM (inactive)

Q: What about the GI50 (COLO 205) of the same molecule?
A: > 100 µM (inactive)

Q: And the GI50 (U-251)?
A: > 100 µM (inactive)

Q: What about the GI50 (NCI-H460) of the same molecule?
A: > 100 µM (inactive)

Q: And the GI50 (SK-OV-3)?
A: > 100 µM (inactive)

Q: What about the GI50 (SN12C) of the same molecule?
A: > 100 µM (inactive)

Q: What about the GI50 (OVCAR-5) of the same molecule?
A: > 100 µM (inactive)

Q: And the GI50 (A498)?
A: > 100 µM (inactive)

Q: And the GI50 (SNB-75)?
A: > 100 µM (inactive)

Q: What about the GI50 (RXF 393) of the same molecule?
A: > 100 µM (inactive)

Q: And the GI50 (M14)?
A: > 100 µM (inactive)

Q: And the GI50 (786-0)?
A: > 100 µM (inactive)

Q: And the GI50 (LOX IMVI)?
A: > 100 µM (inactive)

Q: What about the GI50 (MCF7) of the same molecule?
A: > 100 µM (inactive)

Q: What about the GI50 (OVCAR-4) of the same molecule?
A: > 100 µM (inactive)

Q: What about the GI50 (SF-268) of the same molecule?
A: > 100 µM (inactive)

Q: What about the GI50 (KM12) of the same molecule?
A: > 100 µM (inactive)

Q: And the GI50 (BT-549)?
A: > 100 µM (inactive)

Q: What about the GI50 (SK-MEL-5) of the same molecule?
A: > 100 µM (inactive)

Q: And the GI50 (PC-3)?
A: > 100 µM (inactive)

Q: What about the GI50 (K562) of the same molecule?
A: > 100 µM (inactive)

Q: And the GI50 (SR)?
A: > 100 µM (inactive)
